Measurements published in PubChem BioAssay AID776 (The Scripps Research Institute Molecular Screening Center, 2007).
Calls of active or inactive are those of the source.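 How the source made its calls: active means compounds whose IC50 for cutting the S1P-driven reporter signal is at most 40 micromolar; inactive means IC50 above 40 micromolar.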

target: CHO S1P3/Ga15 NFAT-beta-lactamase reporter, FRET; experiment: S1P3 receptor NFAT-BLA reporter inhibition, dose response, counter-screen for 5HT1E antagonist project, CHO cells, Ga15, NFAT beta-lactamase, FRET (AID 776)

SMILES | IC50
COc1cc2c(cc1OC)C1=C(C#N)CC/C(=N\S(=O)(=O)c3ccccc3)N1CC2 | > 50 µM (inactive)
COc1ccc(N2C(=O)CC(NCc3ccncc3)C2=O)cc1 (stereo not given) | > 50 µM (inactive)
CSc1ccccc1N=CC1=C(O)CC(C)(C)CC1=O | 4.33 µM
O=C1C2C3C=CC(CO)(O3)C2C(=O)N1c1ccc(-c2ccccc2)cc1 (stereo not given) | > 12.4 µM (inactive)
CC(=O)Oc1ccc(N2C(=O)C3C(C2=O)C2(C)C=CC3(C)O2)cc1 (stereo not given) | 7.56 µM
